Read-outs that look alike come from different tables or passages of the source.
Assays:
Staphylococcus aureus = test system: Staphylococcus aureus; set-up: method as in PMID 26968676; conditions: cited from earlier work
SF-268 = test system: SF-268; set-up: method as in PMID 23136829; conditions: read-out: IC50, in vitro cytotoxicity toward SF-268; cited from earlier work
lung carcinoma, MBA9812 = test system: lung carcinoma, MBA9812; set-up: method as in doi:10.1021/jo00007a009; conditions: cited from earlier work
MCF-7 = test system: MCF-7; set-up: method as in PMID 23136829; conditions: read-out: IC50, in vitro cytotoxicity toward MCF-7; cited from earlier work
PC-3 (prostate cancer) = test: Sulforhodamine B cytotoxicity assay, PC-3; assay type: cell-based; conditions: for Selectivity index (SI), ratio of IC50 in CoN in cancer cells, PC-3: CCD841-CoN IC50 / PC-3 IC50; for IC50: 72 h, 72 h continuous exposure, SRB assay, mean ± SD
Procedure: (§1) To analyse the scope of the shikimic-fragment incorporated in the angucycline scaffold on the cytotoxic activity of these compounds, we included five previously obtained compounds (Figure 2, [32]). Therefore, the cytotoxicity of the new nine synthesised compounds, and of the five aforementioned compounds, was evaluated in vitro against different cancer cell lines: PC-3 (prostate cancer), HT-29 (colon cancer), MCF-7 (breast cancer), and one non-tumoral cell line, human colon epithelial cells (CCD841 CoN). A conventional colorimetric assay was set up to estimate the IC50 values, which represent the concentration of a drug that is required for 50% inhibition in vitro after 72 h of continuous exposure to the test compounds. Several serial dilutions (from 1.25 to 100 µM) for each sample were evaluated in triplicate.
(§2) The experimental cell lines were obtained from the American Type Culture Collection. HT-29 (colon cancer cell line), PC-3 (prostate cancer), MCF-7 (breast cancer), and CCD841 CoN (colon epithelial) were grown in DMEM-F12 containing 10% FCS, 100 U/mL penicillin, 100 µg/mL streptomycin, and 1 mM glutamine.
(§3) The in vitro cytotoxic activities of all the compounds were evaluated on cell lines previously mentioned by the sulforhodamine B assay, according to [42]. Briefly, cells were seeded at a plating density of 5 × 10^3 cells/well into 96 well plates. Cells were incubated at 37 °C for 24 h to allow cell attachment. The test compounds at indicated final concentrations were added to the culture medium and the cell cultures were continued for 72 h under the same conditions. Stock solutions of compounds were prepared in DMSO. Control cultures received 0.1% DMSO alone. At the end of the treatment, cells were fixed with trichloroacetic acid (50% w/v) at 4 °C and, subsequently, washed with water. Cells were stained with 0.1% sulforhodamine B in 1% acetic acid for 30 min. Posteriorly, the cells were washed acetic acid (1%) to remove unbound sulforhodamine B. Protein-bound stain was solubilized with 10 mM unbuffered Tris base). The optical density was determined using a […] plate reader (540 nm). The obtained values are transformed to percentages of viable cells versus control treatment and the IC50 values calculated for each compound in the cell lines were studied using the SigmaPlot 12.0 software (Systat Software, San Jose, CA, USA). Values shown are the mean ± SD of the three independent experiments in triplicate.

[1] = test system: human colon epithelial cells (CCD841 CoN); test: Sulforhodamine B cytotoxicity assay, non-tumoral CCD841 CoN; assay type: cell-based; conditions: CCD-841CoN, 72 h continuous exposure, SRB assay, mean ± SD
Procedure: as §1, §2, §3

MCF-7 (breast cancer) = test: Sulforhodamine B cytotoxicity assay, MCF-7; assay type: cell-based; conditions: for Selectivity index (SI), ratio of IC50 in CoN in cancer cells, MCF-7: CCD841-CoN IC50 / MCF-7 IC50; for IC50: Homo sapiens, MCF7, 72 h continuous exposure, SRB assay
Procedure: as §1, §2, §3

HT-29 (colon cancer) = test: Sulforhodamine B cytotoxicity assay, HT-29; assay type: cell-based; conditions: for IC50: 72 h continuous exposure, SRB assay, mean ± SD; for Selectivity index (SI), ratio of IC50 in CoN in cancer cells, HT-29: CCD841-CoN IC50 / HT-29 IC50
Procedure: as §1, §2, §3

[2] = mean ± SD, read-out: IC50 Values MCF-7

SMILES | melting point [°C] | antibacterial activities against Staphylococcus aureus (Staphylococcus aureus) | IC50 (SF-268) [nM] | activity against the lung carcinoma, MBA9812, in mice (lung carcinoma, MBA9812) | IC50 (MCF-7) [nM] | Selectivity index (SI), ratio of IC50 in CoN in cancer cells, PC-3 (PC-3 (prostate cancer)) | IC50 [1] [µM] | Selectivity index (SI), ratio of IC50 in CoN in cancer cells, MCF-7 (MCF-7 (breast cancer)) | IC50 (MCF-7 (breast cancer); [2]) [µM] | IC50 (HT-29 (colon cancer)) [µM] | IC50 (HT-29 (colon cancer); Homo sapiens, HT-29, 72 h) [µM] | IC50 (PC-3 (prostate cancer)) [µM] | Selectivity index (SI), ratio of IC50 in CoN in cancer cells, HT-29 (HT-29 (colon cancer)) | IC50 (MCF-7 (breast cancer); read-out: IC50 value MCF-7) [µM]
Cc1cc(O)c2c3c(ncc2c1)C(=O)c1c(O)cccc1C3=O [Compound 4b, phenanthroviridone] |  | antibacterial activities | 90 | active | 170 |  |  |  |  |  |  |  |  | 
CO[C@@H]1[C@@H]2C(=CN(N(C)C)C3=C2C(=O)c2ccccc2C3=O)C[C@@H](OC)[C@@H]1OC [Compound 15, (1R,2S,3R,12bR)-6-(Dimethylamino)-1,2,3-trimethoxy-1,2,3,4,6,12b-hexahydrobenzo[b]phenanthridine-7,12-dione] | 128.5 |  |  |  |  | 2.3 | 81.6 ± 15.8 | 1.0 | 78.1 ± 6.9 |  | 29.2 ± 6.8 | 34.8 ± 0.3 | 2.8 | 
CN[C@H]1C[C@@H](Oc2cc(C)cc3cnc4c(c23)C(=O)c2cccc(O)c2C4=O)O[C@H](C)[C@H]1O [Compound 4a, phenanthroviridin] |  |  |  | active |  |  |  |  |  |  |  |  |  | 
CC1(C)O[C@@H]2[C@H](O1)c1c(cnc3c1C(=O)c1ccccc1C3=O)C[C@H]2O[Si](C)(C)C(C)(C)C [Compound 9a] |  |  |  |  |  | 0.4 | 2.8 ± 0.4 | 0.2 | 17.8 ± 3 |  | 3.7 ± 0.8 | 7.6 ± 1.2 | 0.8 | 

Further lines, with some results ahead:

melting point [°C] | SMILES | antibacterial activities against Staphylococcus aureus (Staphylococcus aureus) | IC50 (SF-268) [nM] | activity against the lung carcinoma, MBA9812, in mice (lung carcinoma, MBA9812) | IC50 (MCF-7) [nM] | Selectivity index (SI), ratio of IC50 in CoN in cancer cells, PC-3 (PC-3 (prostate cancer)) | IC50 [1] [µM] | Selectivity index (SI), ratio of IC50 in CoN in cancer cells, MCF-7 (MCF-7 (breast cancer)) | IC50 (MCF-7 (breast cancer); [2]) [µM] | IC50 (HT-29 (colon cancer)) [µM] | IC50 (HT-29 (colon cancer); Homo sapiens, HT-29, 72 h) [µM] | IC50 (PC-3 (prostate cancer)) [µM] | Selectivity index (SI), ratio of IC50 in CoN in cancer cells, HT-29 (HT-29 (colon cancer)) | IC50 (MCF-7 (breast cancer); read-out: IC50 value MCF-7) [µM]
161.2 | CO[C@H]1C=Cc2cnc3c(c2[C@@H]1OC)C(=O)c1ccc(C)nc1C3=O [Compound 19b, (1S,2S)-1,2-Dimethoxy-9-methyl-1,2-dihydropyrido[3,2-b]phenanthridine-7,12-dione] |  |  |  |  | 0.7 | 0.3 ± 0.02 | 1.6 | 0.19 ± 0.04 | 0.39 ± 0.04 | < 0.4 |  |  | 
78.8 | CO[C@H]1C=Cc2cnc3c(c2[C@@H]1OC)C(=O)c1cccnc1C3=O [Compound 19a, (1S,2S)-1,2-Dimethoxy-1,2-dihydropyrido[3,2-b]phenanthridine-7,12-dione] |  |  |  |  | 0.5 | 0.04 ± 0.01 | 4.0 | 0.01 ± 0.005 |  |  |  |  | ~0.01
139 | CO[C@@H]1[C@@H]2C(=CNC3=C2C(=O)c2c(O)ccc(O)c2C3=O)C[C@@H](OC)[C@@H]1OC [Compound 16c, (1R,2S,3R,12bR)-8,11-Dihydroxy-1,2,3-trimethoxy-1,2,3,4,6,12b-hexahydrobenzo[b]phenanthridine-7,12-dione] |  |  |  |  | 1.4 | 8.8 ± 1.3 | 0.7 | 13.5 ± 0.9 |  | 4 ± 0.3 | 6.4 ± 0.8 | 2.2 | 
184.8 | CO[C@@H]1[C@H](OC)c2c(cnc3c2C(=O)c2ccccc2C3=O)C[C@H]1OC [Compound 17, (1R,2S,3R)-1,2,3-Trimethoxy-1,2,3,4-tetrahydrobenzo[b]phenanthridine-7,12-dione] |  |  |  |  | 3.0 | 11.8 ± 1.3 | 1.0 | 11.9 ± 1.5 | 3.3 ± 0.9 | ~3 | 3.9 ± 0.6 | 3.6 | 
